Assay results from ChEMBL document CHEMBL1949659, “The green tea polyphenol (2)-epigallocatechin-3-gallate (EGCG) is not a β-secretase inhibitor” (Bioorg Med Chem Lett, 2012).

How the values were obtained:
CHO = test: Cytotoxicity against CHO cells transfected with human BACE1 and human APP with Swedish mutation at 1 nM to 10 uM by MTT assay; format: cell-based, Cricetulus griseus; settings: chinese hamster, 0.001 µM
Mus musculus [1] = test: Antialzheimer's disease activity in mouse hippocampus assessed as inhibition of beta-secretase mediated amyloid beta1-42 production at 3 mg/kg; format: functional
Mus musculus [2] = test: Antialzheimer's disease activity in mouse hippocampus assessed as inhibition of beta-secretase mediated amyloid beta1-42 production at 1.5 mg/kg; format: functional
Mus musculus [3] = test: Antialzheimer's disease activity in mouse cortex assessed as inhibition of beta-secretase mediated amyloid beta1-42 production at 3 mg/kg; format: functional
Mus musculus [4] = test: Antialzheimer's disease activity in mouse cortex assessed as inhibition of beta-secretase mediated amyloid beta1-42 production at 1.5 mg/kg; format: functional
Beta-secretase 1 [5] = target: T1, Beta-secretase 1 (Homo sapiens, UniProt P56817)
Beta-secretase 1 [6] = target: T1, Beta-secretase 1; remark: listed apart in the source
Beta-secretase 1 [7] = target: T1, Beta-secretase 1; remark: listed apart in the source
Beta-secretase 1 [8] = target: T1, Beta-secretase 1; remark: listed apart in the source
Beta-secretase 1 [9] = target: T1, Beta-secretase 1; remark: listed apart in the source
Beta-secretase 1 [10] = target: T1, Beta-secretase 1; remark: listed apart in the source
Beta-secretase 1 [11] = target: T1, Beta-secretase 1; remark: listed apart in the source
Beta-secretase 1 [12] = target: T1, Beta-secretase 1; remark: listed apart in the source
Beta-secretase 1 [13] = target: T1, Beta-secretase 1; remark: listed apart in the source
Beta-secretase 1 [14] = target: T1, Beta-secretase 1; test: Inhibition of recombinant human BACE1 using Eu-CEVNLDAEFK-Qsy7 as substrate by HTRF assay
Beta-secretase 1 [15] = target: T1, Beta-secretase 1; remark: listed apart in the source
Beta-secretase 1 [16] = target: T1, Beta-secretase 1; remark: listed apart in the source
Beta-secretase 1 [17] = target: T1, Beta-secretase 1; remark: listed apart in the source

T1 sequence (P56817 whole entry): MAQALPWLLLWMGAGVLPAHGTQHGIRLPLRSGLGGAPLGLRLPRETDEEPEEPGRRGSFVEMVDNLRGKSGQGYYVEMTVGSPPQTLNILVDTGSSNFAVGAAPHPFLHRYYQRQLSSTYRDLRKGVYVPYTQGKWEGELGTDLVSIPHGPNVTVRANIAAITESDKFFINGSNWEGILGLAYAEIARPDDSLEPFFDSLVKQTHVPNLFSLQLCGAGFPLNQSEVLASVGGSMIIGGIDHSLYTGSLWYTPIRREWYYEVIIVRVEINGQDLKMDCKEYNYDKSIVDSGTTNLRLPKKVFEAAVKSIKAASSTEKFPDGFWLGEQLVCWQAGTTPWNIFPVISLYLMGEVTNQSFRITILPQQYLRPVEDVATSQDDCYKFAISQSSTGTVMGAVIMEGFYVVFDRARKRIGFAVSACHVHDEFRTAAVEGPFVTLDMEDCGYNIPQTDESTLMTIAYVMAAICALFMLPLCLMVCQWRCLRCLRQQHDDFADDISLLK

Row | Compound | RFU (Beta-secretase 1 [5]) | RFU (Beta-secretase 1 [6]) | RFU (Beta-secretase 1 [7]) | RFU (Beta-secretase 1 [8]) | RFU (Beta-secretase 1 [9]) | RFU (Beta-secretase 1 [10]) | RFU (Beta-secretase 1 [11]) | RFU (Beta-secretase 1 [12]) | RFU (Beta-secretase 1 [13]) | IC50 (Beta-secretase 1 [14]) [µM] | RFU (Beta-secretase 1 [15]) | RFU (Beta-secretase 1 [16]) | RFU (Beta-secretase 1 [17]) | Activity (CHO) | inhibition in vivo at 3 mg/kg (Mus musculus [1]) [%] | inhibition in vivo at 1.5 mg/kg (Mus musculus [2]) [%] | inhibition in vivo at 3 mg/kg (Mus musculus [3]) [%] | inhibition in vivo at 1.5 mg/kg (Mus musculus [4]) [%]
1 | C[C@@H](NC(=O)c1cc(C(=O)N[C@@H](Cc2ccccc2)[C@H](O)CNC2CC2)cc(N(C)S(C)(=O)=O)c1)c1ccccc1 |  |  |  |  |  |  |  |  |  |  |  |  |  | Non-toxic |  |  |  | 
2 | O=C(O[C@@H]1Cc2c(O)cc(O)cc2O[C@@H]1c1cc(O)c(O)c(O)c1)c1cc(O)c(O)c(O)c1 [EPIGALOCATECHIN GALLATE] |  |  |  |  |  |  |  |  |  |  |  |  |  | Non-toxic | 39.8 | 25.5 | 51.2 | 18.6
3 | CSc1ccc2c(O)c(C(=O)Nc3ccc(N(CCO)CCO)cc3)cnc2c1 | 73 | 99.8 | 10.5 | 99.8 | 26.8 | 94.8 | 36.2 | 99.8 | 79 | 2.81 | 14.2 | 69.4 | 21.7 | Non-toxic |  |  |  | 

The next lines start with results.

Row | RFU (Beta-secretase 1 [5]) | RFU (Beta-secretase 1 [6]) | RFU (Beta-secretase 1 [7]) | RFU (Beta-secretase 1 [8]) | RFU (Beta-secretase 1 [9]) | RFU (Beta-secretase 1 [10]) | RFU (Beta-secretase 1 [11]) | RFU (Beta-secretase 1 [12]) | RFU (Beta-secretase 1 [13]) | IC50 (Beta-secretase 1 [14]) [µM] | RFU (Beta-secretase 1 [15]) | RFU (Beta-secretase 1 [16]) | RFU (Beta-secretase 1 [17]) | Compound | Activity (CHO) | inhibition in vivo at 3 mg/kg (Mus musculus [1]) [%] | inhibition in vivo at 1.5 mg/kg (Mus musculus [2]) [%] | inhibition in vivo at 3 mg/kg (Mus musculus [3]) [%] | inhibition in vivo at 1.5 mg/kg (Mus musculus [4]) [%]
4 | 67.3 | 98.3 | 6.14 | 98.7 | 26.2 | 81.5 | 34.1 | 97.7 | 73.8 | 3.84 | 20.2 | 63.4 | 22.2 | CSc1cccc2c(O)c(C(=O)Nc3ccc(N(CCO)CCO)cc3)cnc12 | Non-toxic |  |  |  | 
5 | 72 | 90.1 | 4.36 | 87.4 | 26.2 | 80.3 | 39.1 | 87.4 | 77.2 | 2.27 | 13.7 | 65.1 | 24.9 | O=C(Nc1ccc(N(CCO)CCO)cc1)c1cnc2cc(Cl)cc(Cl)c2c1O | Non-toxic |  |  |  | 
